# Laboratory results taken from US7626031B2, “Substituted 3-(diarylmethylene)indolin-2-ones and methods of their use” (Symphony Evolution, Inc., priority 2002, dated 2009).
# Tests used:
# EphA2 = EphA2 (Homo sapiens, UniProt P29317); experiment: Kinase assay, EphA2 (33P-ATP incorporation or luciferase-coupled ATP consumption); type: biochemical
# Method in brief: (§1)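 Two formats used: luciferase/luciferin chemiluminescence of ATP consumed with pEY, or radiometric 33P transfer to plate-bound MBP or pEY read by scintillation.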
# EGFR = EGFR (Homo sapiens, UniProt P00533); experiment: Kinase assay, EGFR (33P-ATP incorporation or luciferase-coupled ATP consumption); type: biochemical
# Sequence of EGFR (P00533 25-1210, species assumed): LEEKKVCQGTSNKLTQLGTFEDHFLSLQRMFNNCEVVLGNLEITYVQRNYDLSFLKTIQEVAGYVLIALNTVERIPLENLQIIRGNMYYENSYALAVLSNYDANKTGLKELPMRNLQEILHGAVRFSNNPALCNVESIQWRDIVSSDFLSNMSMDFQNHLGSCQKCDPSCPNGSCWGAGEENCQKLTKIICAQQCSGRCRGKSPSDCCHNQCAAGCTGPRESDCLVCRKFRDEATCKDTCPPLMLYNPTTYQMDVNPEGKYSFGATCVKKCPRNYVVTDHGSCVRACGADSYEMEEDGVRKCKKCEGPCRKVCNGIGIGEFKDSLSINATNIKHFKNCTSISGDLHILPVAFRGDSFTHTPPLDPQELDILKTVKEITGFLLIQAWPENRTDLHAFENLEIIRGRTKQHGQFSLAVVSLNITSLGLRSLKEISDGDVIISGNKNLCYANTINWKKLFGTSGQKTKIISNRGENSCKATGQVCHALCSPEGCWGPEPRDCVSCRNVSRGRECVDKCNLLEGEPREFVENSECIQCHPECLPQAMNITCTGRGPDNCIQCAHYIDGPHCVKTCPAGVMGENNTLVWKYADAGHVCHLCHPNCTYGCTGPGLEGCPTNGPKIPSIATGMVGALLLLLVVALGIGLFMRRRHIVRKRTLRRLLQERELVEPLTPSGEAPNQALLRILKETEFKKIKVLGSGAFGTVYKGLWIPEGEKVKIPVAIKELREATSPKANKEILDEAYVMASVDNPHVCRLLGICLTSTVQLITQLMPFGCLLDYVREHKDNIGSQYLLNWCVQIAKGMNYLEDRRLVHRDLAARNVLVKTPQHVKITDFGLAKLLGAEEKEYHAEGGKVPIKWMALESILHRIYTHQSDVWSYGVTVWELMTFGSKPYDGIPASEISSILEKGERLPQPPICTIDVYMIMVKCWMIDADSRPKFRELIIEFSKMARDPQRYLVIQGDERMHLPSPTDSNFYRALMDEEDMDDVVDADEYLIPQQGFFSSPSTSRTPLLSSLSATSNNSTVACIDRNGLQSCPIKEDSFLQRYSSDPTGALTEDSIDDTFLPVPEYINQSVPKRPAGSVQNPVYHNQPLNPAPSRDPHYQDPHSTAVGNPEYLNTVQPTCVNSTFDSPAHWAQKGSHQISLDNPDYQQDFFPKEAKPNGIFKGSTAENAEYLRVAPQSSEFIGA
# Method in brief: as §1
# PDGFR alpha = PDGFR alpha (Homo sapiens, UniProt P16234); experiment: Kinase assay, PDGFR alpha (33P-ATP incorporation or luciferase-coupled ATP consumption); type: biochemical; details: read-out: PDGF-R-A IC50
# Method in brief: as §1
# Fyn = Fyn (Homo sapiens, UniProt P06241); experiment: Kinase assay, Fyn; type: biochemical
# Sequence of Fyn (P06241 whole entry, species assumed): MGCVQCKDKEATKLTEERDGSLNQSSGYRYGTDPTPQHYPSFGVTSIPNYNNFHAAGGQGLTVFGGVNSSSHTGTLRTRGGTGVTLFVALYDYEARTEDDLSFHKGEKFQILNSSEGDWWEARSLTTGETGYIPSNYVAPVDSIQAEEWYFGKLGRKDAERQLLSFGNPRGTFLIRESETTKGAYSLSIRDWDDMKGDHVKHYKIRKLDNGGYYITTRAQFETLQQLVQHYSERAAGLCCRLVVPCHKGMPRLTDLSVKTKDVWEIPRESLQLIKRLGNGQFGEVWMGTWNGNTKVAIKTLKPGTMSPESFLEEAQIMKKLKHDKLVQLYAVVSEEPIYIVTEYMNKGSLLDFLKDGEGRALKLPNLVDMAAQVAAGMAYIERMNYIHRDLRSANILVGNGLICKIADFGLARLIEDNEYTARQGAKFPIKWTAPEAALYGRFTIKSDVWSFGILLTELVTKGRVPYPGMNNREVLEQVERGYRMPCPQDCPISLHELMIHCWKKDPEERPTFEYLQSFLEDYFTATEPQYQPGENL
# Method: (§2) Kinase activity and compound inhibition are investigated using one or more assay formats. The ATP concentrations for each assay are selected to be close to the Michaelis-Menten constant (KM) for each individual kinase. Dose-response experiments are performed at 10 different inhibitor concentrations in a 384-well plate format. […] Exemplary kinase assays are described below. KDR Assay
# c-Kit kinase = c-Kit kinase (Homo sapiens, UniProt P10721); experiment: c-Kit AlphaScreen kinase assay; type: biochemical
# Method: as §2
# c-Kit biochemical activity was assessed using AlphaScreen™ (Perkin Elmer) technology, described above. Test compounds, ATP, biotinylated poly(Glu, Tyr) and c-Kit kinase were combined in a volume of 20 μL in a 384-well white, medium binding microtiter plate (Greiner). Reaction mixtures were incubated for 1 hr at ambient temperature. Reactions were quenched by addition of 10 uL of […] AlphaScreen bead suspension containing 75 mM Hepes, pH 7.4, 300 mM NaCl, 120 mM EDTA, 0.3% BSA and 0.03% Tween-20. After 16 hr incubation at ambient temperature plates were read using an AlphaQuest reader (Perkin Elmer).
# IRK = IRK (Homo sapiens, UniProt P06213); experiment: Kinase assay, IRK; type: biochemical
# Sequence of IRK (P06213 28-1382): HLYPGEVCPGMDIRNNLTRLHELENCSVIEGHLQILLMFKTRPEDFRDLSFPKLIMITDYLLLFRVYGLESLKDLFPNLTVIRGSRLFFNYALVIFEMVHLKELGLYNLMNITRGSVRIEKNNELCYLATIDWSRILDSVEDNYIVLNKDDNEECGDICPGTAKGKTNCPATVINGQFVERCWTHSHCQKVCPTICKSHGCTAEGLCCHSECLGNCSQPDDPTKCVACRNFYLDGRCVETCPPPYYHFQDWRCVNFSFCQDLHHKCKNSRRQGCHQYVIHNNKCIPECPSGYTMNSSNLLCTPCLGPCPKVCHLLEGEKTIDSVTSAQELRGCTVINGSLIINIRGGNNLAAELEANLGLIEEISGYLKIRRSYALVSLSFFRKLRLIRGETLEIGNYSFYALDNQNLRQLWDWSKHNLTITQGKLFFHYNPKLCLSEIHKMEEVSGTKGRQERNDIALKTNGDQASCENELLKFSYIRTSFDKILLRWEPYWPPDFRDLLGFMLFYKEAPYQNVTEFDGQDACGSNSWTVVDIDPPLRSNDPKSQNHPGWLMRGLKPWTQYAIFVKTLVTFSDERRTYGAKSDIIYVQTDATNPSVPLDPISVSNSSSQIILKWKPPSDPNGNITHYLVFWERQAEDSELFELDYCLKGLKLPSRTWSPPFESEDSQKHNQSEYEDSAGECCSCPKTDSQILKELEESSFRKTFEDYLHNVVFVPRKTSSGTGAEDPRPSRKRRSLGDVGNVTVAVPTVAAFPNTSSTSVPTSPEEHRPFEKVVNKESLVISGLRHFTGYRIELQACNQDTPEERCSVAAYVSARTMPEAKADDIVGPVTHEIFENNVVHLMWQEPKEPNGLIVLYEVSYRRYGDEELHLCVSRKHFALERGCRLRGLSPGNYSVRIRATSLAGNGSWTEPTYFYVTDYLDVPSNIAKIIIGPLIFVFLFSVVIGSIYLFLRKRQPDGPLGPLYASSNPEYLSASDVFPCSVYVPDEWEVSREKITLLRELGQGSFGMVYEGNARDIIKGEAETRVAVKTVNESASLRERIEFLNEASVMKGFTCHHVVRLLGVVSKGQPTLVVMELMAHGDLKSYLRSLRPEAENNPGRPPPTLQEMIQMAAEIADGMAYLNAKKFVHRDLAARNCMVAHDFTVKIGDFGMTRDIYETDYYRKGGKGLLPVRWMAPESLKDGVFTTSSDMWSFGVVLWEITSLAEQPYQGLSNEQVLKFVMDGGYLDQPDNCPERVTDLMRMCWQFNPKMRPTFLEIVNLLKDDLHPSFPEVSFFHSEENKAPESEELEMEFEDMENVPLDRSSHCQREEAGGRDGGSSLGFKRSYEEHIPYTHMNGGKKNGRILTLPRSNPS
# Method: as §2
# ALK = ALK (Homo sapiens, UniProt Q9UM73); experiment: Kinase assay, ALK (33P-ATP incorporation or luciferase-coupled ATP consumption); type: biochemical
# Method: Kinase assays were performed by measurement of incorporation of γ-^33P ATP into immobilized myelin basic protein (MBP). […] Plates were washed 3× with 100 μl TBS. […] Compound dilutions were performed in DMSO and added to assay wells to a final DMSO concentration of 1%. Each data point was measured in duplicate, and at least two duplicate assays were performed for each individual compound determination. Enzyme was added to final concentrations of 10 nM or 20 nM, for example. A mixture of unlabeled ATP and γ-^33P ATP was added to start the reaction (2×10^6 cpm of γ-^33P ATP per well (3000 Ci/mmole) and either 10 μM or 30 μM unlabeled ATP, typically. The reactions were carried out for 1 hour at room temperature with shaking. Plates were washed 7× with TBS, followed by the addition of 50 μl/well scintillation fluid (Wallac). Plates were read using a Wallac Trilux counter. This is only one format of such assays, various other formats are possible, as known to one of ordinary skill in the art.
# Tyrosine kinase activity is determined by 1) measurement of kinase-dependent ATP consumption by in the presence of a generic substrate such as, polyglutamic acid, tyrosine, 4:1 (pEY), by luciferase/luciferin-mediated chemiluminescence or; 2) incorporation of radioactive phosphate derived from ^33P-ATP into a generic substrate which has been adsorbed onto the well surface of polystyrene microtiter plates. Phosphorylated substrate products are quantified by scintillation spectrometry.
# as §2
# [1] = molecular target: T1, KDR (baculovirus expressed human KDR kinase domain D807-V1356) (Homo sapiens, UniProt P35968); experiment: biochemical
# T1 construct: human KDR kinase domain D807-V1356; host or cells: baculovirus expression system
# T1 sequence (P35968 807-1356): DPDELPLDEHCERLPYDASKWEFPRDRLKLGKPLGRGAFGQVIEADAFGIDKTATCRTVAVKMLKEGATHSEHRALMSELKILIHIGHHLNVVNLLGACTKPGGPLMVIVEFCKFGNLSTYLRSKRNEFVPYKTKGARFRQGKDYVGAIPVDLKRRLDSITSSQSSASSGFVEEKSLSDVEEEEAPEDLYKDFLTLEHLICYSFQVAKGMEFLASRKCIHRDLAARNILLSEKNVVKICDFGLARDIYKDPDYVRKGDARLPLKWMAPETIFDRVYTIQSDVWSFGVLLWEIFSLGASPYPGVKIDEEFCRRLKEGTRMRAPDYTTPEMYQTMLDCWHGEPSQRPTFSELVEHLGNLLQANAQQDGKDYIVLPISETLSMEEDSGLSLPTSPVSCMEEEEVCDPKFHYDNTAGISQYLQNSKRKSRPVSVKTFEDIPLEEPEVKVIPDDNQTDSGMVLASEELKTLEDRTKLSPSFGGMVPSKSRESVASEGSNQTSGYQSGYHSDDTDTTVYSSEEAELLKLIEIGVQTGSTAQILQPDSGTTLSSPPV
# Method in brief: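 Luciferase-coupled chemiluminescence quantifies ATP left after a 4 h room-temperature reaction of KDR kinase domain (D807–V1356, baculovirus-expressed human). ATP set close to KM; inhibitors tested at 10 concentrations.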
# FGFR1 = FGFR1 (Homo sapiens, UniProt P11362); experiment: Kinase assay, FGFR1 (33P-ATP incorporation or luciferase-coupled ATP consumption); type: biochemical
# Method in brief: as §1
# Flt3 = molecular target: T2, Flt3 (Homo sapiens, UniProt P36888); experiment: Kinase assay, Flt3; type: biochemical
# T2 sequence (P36888 27-993): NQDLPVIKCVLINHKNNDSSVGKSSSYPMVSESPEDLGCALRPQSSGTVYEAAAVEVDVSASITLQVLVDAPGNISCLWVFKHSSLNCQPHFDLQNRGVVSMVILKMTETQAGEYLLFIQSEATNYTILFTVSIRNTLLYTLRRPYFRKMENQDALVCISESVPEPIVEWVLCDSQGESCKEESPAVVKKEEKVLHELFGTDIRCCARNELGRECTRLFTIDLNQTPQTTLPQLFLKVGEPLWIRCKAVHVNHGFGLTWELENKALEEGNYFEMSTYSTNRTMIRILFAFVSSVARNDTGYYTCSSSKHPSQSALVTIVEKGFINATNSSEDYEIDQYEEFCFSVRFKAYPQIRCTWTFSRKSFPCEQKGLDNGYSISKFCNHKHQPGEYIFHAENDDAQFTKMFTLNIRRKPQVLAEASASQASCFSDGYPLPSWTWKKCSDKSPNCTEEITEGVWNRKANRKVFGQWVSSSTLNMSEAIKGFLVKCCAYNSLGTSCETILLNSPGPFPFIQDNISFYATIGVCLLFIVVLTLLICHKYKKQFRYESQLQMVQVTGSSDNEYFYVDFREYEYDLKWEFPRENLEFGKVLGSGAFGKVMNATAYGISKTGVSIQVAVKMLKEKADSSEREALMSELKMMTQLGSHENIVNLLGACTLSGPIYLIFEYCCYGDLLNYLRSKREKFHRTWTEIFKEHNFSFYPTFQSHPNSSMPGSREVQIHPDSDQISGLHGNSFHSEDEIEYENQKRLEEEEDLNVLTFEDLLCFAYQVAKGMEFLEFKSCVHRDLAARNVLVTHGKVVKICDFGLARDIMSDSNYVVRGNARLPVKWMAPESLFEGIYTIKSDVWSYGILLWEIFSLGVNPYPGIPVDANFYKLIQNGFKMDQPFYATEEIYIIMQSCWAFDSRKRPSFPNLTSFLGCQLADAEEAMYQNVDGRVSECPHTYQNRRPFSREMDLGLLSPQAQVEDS
# Method: as §2
# Sequence of EphA2 (P29317 24-976, species assumed): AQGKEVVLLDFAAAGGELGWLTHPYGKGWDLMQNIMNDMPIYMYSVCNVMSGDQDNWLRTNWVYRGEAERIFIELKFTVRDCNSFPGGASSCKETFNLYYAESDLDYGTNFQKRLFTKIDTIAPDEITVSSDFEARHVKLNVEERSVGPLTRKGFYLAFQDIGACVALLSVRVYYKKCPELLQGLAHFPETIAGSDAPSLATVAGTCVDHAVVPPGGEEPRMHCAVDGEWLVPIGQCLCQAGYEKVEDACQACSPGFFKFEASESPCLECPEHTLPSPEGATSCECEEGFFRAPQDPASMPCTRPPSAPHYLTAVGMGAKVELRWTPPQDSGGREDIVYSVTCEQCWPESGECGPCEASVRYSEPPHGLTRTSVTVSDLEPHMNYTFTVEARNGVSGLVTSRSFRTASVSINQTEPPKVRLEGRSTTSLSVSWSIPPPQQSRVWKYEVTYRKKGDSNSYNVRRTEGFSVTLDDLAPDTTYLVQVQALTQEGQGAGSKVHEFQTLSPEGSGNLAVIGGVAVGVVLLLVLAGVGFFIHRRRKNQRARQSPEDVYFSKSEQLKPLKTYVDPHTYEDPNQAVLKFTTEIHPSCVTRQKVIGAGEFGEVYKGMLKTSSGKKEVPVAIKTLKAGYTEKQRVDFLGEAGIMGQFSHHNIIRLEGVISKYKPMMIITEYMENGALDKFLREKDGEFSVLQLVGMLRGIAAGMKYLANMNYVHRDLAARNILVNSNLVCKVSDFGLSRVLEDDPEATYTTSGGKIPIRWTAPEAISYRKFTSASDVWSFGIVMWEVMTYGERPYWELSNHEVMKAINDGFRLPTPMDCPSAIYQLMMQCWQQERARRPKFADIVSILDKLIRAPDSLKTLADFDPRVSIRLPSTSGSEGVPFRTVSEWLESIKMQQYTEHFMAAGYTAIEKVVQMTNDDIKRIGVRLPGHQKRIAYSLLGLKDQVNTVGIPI
SMILES,IC50 (EphA2) [µM],IC50 (EGFR) [µM],IC50 (PDGFR alpha) [µM],IC50 (Fyn) [µM],IC50 (c-Kit kinase) [µM],IC50 (IRK) [µM],IC50 (ALK) [µM],IC50 [1] [µM],IC50 (FGFR1) [µM],IC50 (Flt3) [µM]
"CCN1CCC(Nc2ccc3c(c2)/C(=C(\c2ccc(F)cc2)c2ncc[nH]2)C(=O)N3)CC1 [Entry 58, (3Z)-5-[(1-ethylpiperidin-4-yl)amino]-3-[(4-fluorophenyl)(1H-imidazol-2-yl)methylidene]-1,3-dihydro-2H-indol-2-one]",0.5 to 5,0.5 to 5,< 0.05,< 0.05,< 0.05,> 5,0.05 to 0.5,< 0.05,< 0.05,
"CCN1CCC(Nc2ccc3c(c2)/C(=C(\c2cc(F)cc(F)c2)c2nc(C)c[nH]2)C(=O)N3)CC1 [Entry 74, (3Z)-3-[(3,5-difluorophenyl)(4-methyl-1H-imidazol-2-yl)methylidene]-5-[(1-ethylpiperidin-4-yl)amino]-1,3-dihydro-2H-indol-2-one]",0.05 to 0.5,0.05 to 0.5,,< 0.05,< 0.05,0.5 to 5,0.05 to 0.5,,,< 0.05
CCN1CCC(Nc2ccc3c(c2)/C(=C(\c2ccc(Cl)cc2)c2nc(C)c[nH]2)C(=O)N3)CC1 [Entry 102],0.5 to 5,0.05 to 0.5,< 0.05,< 0.05,< 0.05,0.5 to 5,< 0.05,< 0.05,< 0.05,
"CCN1CCC(Nc2ccc3c(c2)/C(=C(/c2nc(C)c[nH]2)c2cccc(F)c2F)C(=O)N3)CC1 [Entry 110, (3Z)-3-[(2,3-difluorophenyl)(4-methyl-1H-imidazol-2-yl)methylidene]-5-[(1-ethylpiperidin-4-yl)amino]-1,3-dihydro-2H-indol-2-one]",0.5 to 5,0.05 to 0.5,< 0.05,< 0.05,< 0.05,0.5 to 5,< 0.05,< 0.05,< 0.05,
"CCN1CCC(Nc2ccc3c(c2)/C(=C(/c2nc(C)c[nH]2)c2ccc(F)cc2F)C(=O)N3)CC1 [Entry 111, (3Z)-3-[(2,4-difluorophenyl)(4-methyl-1H-imidazol-2-yl)methylidene]-5-[(1-ethylpiperidin-4-yl)amino]-1,3-dihydro-2H-indol-2-one]",0.5 to 5,0.05 to 0.5,< 0.05,< 0.05,< 0.05,0.5 to 5,0.05 to 0.5,< 0.05,0.05 to 0.5,
"CCN1CCC(Nc2ccc3c(c2)/C(=C(/c2ncc[nH]2)c2cc(F)c(Cl)cc2Cl)C(=O)N3)CC1 [Entry 116, (3Z)-3-[(2,4-dichloro-5-fluorophenyl) (1H-imidazol-2-yl)methylidene]-5-[(1-ethylpiperidin-4-yl)amino]-1,3-dihydro-2H-indol-2-one]",0.5 to 5,0.05 to 0.5,< 0.05,< 0.05,< 0.05,0.5 to 5,,< 0.05,< 0.05,< 0.05
"CCN1CCC(Nc2ccc3c(c2)/C(=C(/c2nc(C)c[nH]2)c2cc(F)c(Cl)cc2Cl)C(=O)N3)CC1 [Entry 117, (3Z)-3-[(2,4-dichloro-5-fluorophenyl)(4-methyl-1H-imidazol-2-yl)methylidene]-5-[(1-ethylpiperidin-4-yl)amino]-1,3-dihydro-2H-indol-2-one]",0.5 to 5,0.05 to 0.5,< 0.05,< 0.05,< 0.05,0.5 to 5,,< 0.05,< 0.05,< 0.05
